Test systems include BT-549; DMS-114; LXFL 529; M19-MEL; SNB-78; XF498; HOP-18; 786-0; RXF 631.
Common to all, as to test: NCI tumour cell line growth inhibition, 48 h

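Grown in 96-well plates, cells were treated for 48 hours with each compound at five concentrations. Insufficient inhibition: endpoint recorded as highest concentration tested. GI50: concentration for 50% inhibition of growth.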 Activity calls are given as the source filed them. Cut-off read from the data, not from the text of the source: active = GI50 up to about 1.1 µM and inactive = higher. A value given as a limit tells only on which side of the number the result lay.

Turning to `Nc1nc(Cl)nc2c1ncn2C1CCC(CO)O1` (centres undefined), the GI50 in the assay on BT-549 is > 100 µM (inactive).
With `Nc1ccc2c(c1)C(=O)N(O)C2=O`, the GI50 in the assay with DMS-114, in the assay on LXFL 529, in the assay on M19-MEL, in the assay on SNB-78 and with XF498 was > 100 µM (inactive) each time.
With `Cc1ccc2c(c1)C(=O)N(N(C)C)CC(=O)N2`, the GI50 in the assay with DMS-114, in the assay on HOP-18, in the assay on LXFL 529, in the assay with M19-MEL, in the assay with SNB-78 and with XF498 was > 100 µM (inactive) in each case.
As to `CN(C)/C(=N\C#N)NCc1ccccc1`, the GI50 in the assay with 786-0, with LXFL 529, in the assay on M19-MEL and in the assay with SNB-78 was > 100 µM (inactive) each time.
`O=c1ccc2nc3cc(Br)ccc3sc-2c1`: the GI50 was > 100 µM (inactive) in the assay on DMS-114, 89.7 µM (inactive) with LXFL 529, 55.1 µM (inactive) with M19-MEL and > 100 µM (inactive) in the assay with SNB-78.
As to `O=c1[nH]c(=O)n(C2CC(O)C(O)C(CO)O2)cc1F` (centres undefined), the GI50 in the assay on 786-0, in the assay with DMS-114, in the assay on HOP-18, in the assay with LXFL 529, in the assay on M19-MEL and with RXF 631 was > 100 µM (inactive) throughout. In addition, the GI50 with SNB-78 and in the assay on XF498 was > 100 µM (inactive) in each case.
Regarding `c1ccc2c(c1)SP1Sc3ccccc3P21` (centres undefined), the GI50 in the assay on DMS-114 was > 79.3 µM (inactive); with HOP-18 it was 18.1 µM (inactive); in the assay with M19-MEL it was > 100 µM (inactive); in the assay with SNB-78, > 100 µM (inactive); in the assay on XF498, > 100 µM (inactive).
As to `COc1ccc(C2CC(c3c(O)ccc4ccccc34)=NN2)cc1OC` (centres undefined), the GI50 in the assay with BT-549 was 3.92 µM (inactive).
As to `Cc1cccc(C(C)C)c1NC(=O)CC1Sc2ccccc2NC1=O` (centres undefined), the GI50 in the assay with DMS-114 was 23.4 µM (inactive); in the assay on HOP-18 it was > 100 µM (inactive); in the assay on LXFL 529, 79.1 µM (inactive); in the assay with RXF 631, 85.1 µM (inactive); in the assay on XF498 it was > 100 µM (inactive).
For the compound `Cc1cc(=O)n2nc(CSc3nnc(S)s3)sc2n1`, the GI50 in the assay with 786-0 and in the assay with BT-549 was > 100 µM (inactive) each time.
`CC(C)(C)[Si](C)(C)OCC1OC(n2cnc3c(N)ncnc32)CC1O` (centres undefined): the GI50 in the assay on BT-549 is 32.7 µM (inactive).
The same measure, in the same setting: with `COc1cc2c(cc1OC)CCN=C2` the figure was > 100 µM (inactive).
For the compound `COC1CCC(O)C(CO)O1` (centres undefined), the GI50 was 50.6 µM (inactive) with LXFL 529, 60.7 µM (inactive) with M19-MEL, > 100 µM (inactive) in the assay with SNB-78 and > 100 µM (inactive) with XF498.
For the compound `CN(C)C(=O)OCOC(=O)N(C)C`, the GI50 with DMS-114, with HOP-18, with M19-MEL, in the assay with SNB-78 and with XF498 was > 100 µM (inactive) each time.
In the case of `Cc1ccc(Nc2nc(C)c(C(=O)CC(=O)C(=O)Nc3c(C)cccc3C(C)(C)C)s2)cc1`, the GI50 is 75.9 µM (inactive) in the assay on 786-0 and > 100 µM (inactive) with BT-549.
For `CSc1nc(Cl)c2c(n1)Sc1ncnn1C2O` (centres undefined) the same measures were 2.66 µM (inactive) and 11.4 µM (inactive).
For `O=C(O)C12CCCC(CCC1)C2`, the GI50 in the assay with DMS-114, with LXFL 529, with RXF 631, in the assay on SNB-78 and with XF498 was > 100 µM (inactive) each time.
Consider `O=C1C=C(Br)c2c(Br)sc(Br)c21`, for which the GI50 with 786-0 was 2.53 µM (inactive); in the assay on BT-549 it was 6.76 µM (inactive).
Regarding `O=C(CCC1C(=O)NC(=S)NC1=O)c1ccc2ccccc2c1`, the GI50 in the assay on 786-0, in the assay with DMS-114, with HOP-18, in the assay with LXFL 529, with M19-MEL and in the assay on SNB-78 was > 100 µM (inactive) each time.
In the case of `CC(NNC(=O)c1cc[n+]([BH2-]C#N)cc1)c1ccccc1F` (centres undefined), the GI50 with 786-0 and in the assay on BT-549 was > 100 µM (inactive) in each case.
Take `COc1cc(C2c3cc4c(cc3[C@@H](Nc3ccc5c(c3)OCO5)C3COC(=O)[C@H]23)OCO4)cc(OC)c1O` (some centres undefined): the GI50 in the assay on HOP-18 is 0.766 µM (active); with M19-MEL, 1.65 µM (inactive); with XF498, 1.64 µM (inactive).
For `C[n+]1c(-c2ccc(/C=N/Nc3n[nH]c(=S)n3N/N=C/c3ccc(-c4cn5ccccc5[n+]4C)cc3)cc2)cn2ccccc21`, the GI50 in the assay on 786-0 was > 100 µM (inactive).
As for `Cc1cc(-c2nc3cccc(O)c3s2)ccc1N`, the GI50 in the assay with 786-0 is 34.1 µM (inactive); in the assay with BT-549, 18.5 µM (inactive).
Turning to `CC(C)(C)c1cc(O)ccc1O` [E319], the GI50 was > 54.8 µM (inactive) in the assay on 786-0 and > 100 µM (inactive) in the assay on BT-549.
